Data reported in US20100009970A1, “COMPOSITIONS AND METHODS FOR TREATMENT OF VIRAL DISEASES” (Combinatorx (Singapore) Pte. Ltd., priority 2008, published 2010).
pIC50: −log10 of the molar value. Like-named read-outs stand apart in the source and are kept apart here.

Tests used:
[1] = tested on: Huh7 cells expressing a subgenomic RNA replicon of Con1 (genotype 1b) sequence origin; test: microbe, parasite or virus in culture; details: Hepatitis C virus; for IC50: Huh-7, read-out: IC50 (uM) [SG]
[2] = in vitro; details: human
[3] = Huh-7, read-out: Max Effect@CC30 (inhibition)

SMILES | IC50 [1] | CC50 ([2]; CC50 (uM) [SG]) | Emax [1, 3] | IC90 ([1]; Huh-7) | CC50 ([2]; CC50 (uM)) | pIC50 ([1]; Huh-7) | Emax ([1]; Huh-7, read-out: Max Effect @CC30 (inhibition))
CN(C(=O)c1ccc2c(c1)[C@@H](N(C)C)CC[C@H]2c1ccc(Cl)c(Cl)c1)C1CC1 [(5S,8S)—N-cyclopropyl-5-(3,4-dichlorophenyl)-8-(dimethylamino)-N-methyl-5,6,7,8-tetrahydronaphthalene-2-carboxamide] | 13 µM | 26.3 µM | – | – | – | – | –
CN[C@H]1CC[C@@H](c2ccc(Cl)c(Cl)c2)c2ccc(C(=O)NC3CC3)cc21 [(5S,8S)—N-cyclopropyl-5-(3,4-dichlorophenyl)-8-(methylamino)-5,6,7,8-tetrahydronaphthalene-2-carboxamide] | 2.75 µM | 8.87 µM | 88% | – | – | – | –
CC(C)C1=CC[C@@H](c2ccc(Cl)c(Cl)c2)c2ccc(C(N)=O)cc21 [(S)-5-(3,4-dichlorophenyl)-8-isopropyl-5,6-dihydronaphthalene-2-carboxamide] | 21.5 µM | > 50 µM | – | – | – | – | –
OC1CC[C@@H](c2ccc(Cl)c(Cl)c2)c2ccccc21 (stereo partly drawn) [Alcohol Sertraline-P1, (S)-4-(3,4-dichlorophenyl)-1,2,3,4-tetrahydronaphthalen-1-ol] | 24.5 µM | > 50 µM | 89.2% | – | – | – | –
CSc1ccc(Oc2ccc(S(N)(=O)=O)cc2CNCCO)cc1C [Compound 1, 3-((2-hydroxyethylamino)methyl)-4-(3-methyl-4-(methylthio)phenoxy)benzenesulfonamide] | 4.31 µM | > 50 µM | – | 15 µM | – | – | –
CSc1ccc(Oc2ccc(S(N)(=O)=O)cc2CN(C)CCO)cc1C [Compound 2, 3-(((2-hydroxyethyl)(methyl)amino)methyl)-4-(3-methyl-4-(methylthio)phenoxy)benzenesulfonamide] | 5.58 µM | > 50 µM | – | 20.1 µM | – | – | –
CNS(=O)(=O)c1ccc(Oc2ccc(SC)c(C)c2)c(CN(C)C)c1 [Compound 6, 3-((dimethylamino)methyl)-N-methyl-4-(3-methyl-4-(methylthio)phenoxy)benzenesulfonamide] | 5.8 µM | 45.3 µM | 93.2% | 14.8 µM | – | – | –
CSc1ccc(Oc2ccc(C#N)cc2CN(C)C)cc1C [Compound 7, 3-((dimethylamino)methyl)-4-(3-methyl-4-(methylthio)phenoxy)benzonitrile] | 6.4 µM | > 50 µM | 96.7% | 11.5 µM | – | – | –
CSc1ccc(Oc2ccccc2CN(C)C)cc1C [Compound 8, N,N-dimethyl-1-(2-(3-methyl-4-(methylthio)phenoxy)phenyl)methanamine] | 12.2 µM | 36 µM | 52.3% | – | – | – | –
CSc1ccc(Oc2ccc(C(N)=O)cc2CN(C)C)cc1C [Compound 10, 3-((dimethylamino)methyl)-4-(3-methyl-4-(methylthio)phenoxy)benzamide] | 26.9 µM | > 50 µM | 80.7% | – | – | – | –
CCCCNS(=O)(=O)c1ccc(Oc2ccc(SC)c(C)c2)c(CN(C)C)c1 [Compound 12, N-butyl-3-((dimethylamino)methyl)-4-(3-methyl-4-(methylthio)phenoxy)benzenesulfonamide] | 13.4 µM | 18.4 µM | – | – | – | – | –
CSc1ccc(Oc2ccc(S(=O)(=O)NC3CC3)cc2CN(C)C)cc1C [Compound 13, N-cyclopropyl-3-((dimethylamino)methyl)-4-(3-methyl-4-(methylthio)phenoxy)benzenesulfonamide] | 25.5 µM | 41.8 µM | – | – | – | – | –
CSc1ccc(Oc2ccc(S(=O)(=O)NCc3ccccc3)cc2CN(C)C)cc1C [Compound 14, N-benzyl-3-((dimethylamino)methyl)-4-(3-methyl-4-(methylthio)phenoxy)benzenesulfonamide] | 11.4 µM | 16.9 µM | 59% | – | – | – | –
CSc1ccc(Oc2ccc(N(C)C)cc2CN(C)C)cc1C [Compound 15, 3-((dimethylamino)methyl)-N,N-dimethyl-4-(3-methyl-4-(methylthio)phenoxy)aniline] | 23 µM | 38.7 µM | – | – | – | – | –
CSc1ccc(Oc2ccc(CNS(C)(=O)=O)cc2CN(C)C)cc1C [Compound 17, N-(3-((dimethylamino)methyl)-4-(3-methyl-4-(methylthio)phenoxy)benzyl)methanesulfonamide] | 22.7 µM | > 50 µM | – | – | – | – | –
CNc1ccc(Oc2ccc(SC)c(C)c2)c(CN(C)C)c1 [Compound 25, 3-((dimethylamino)methyl)-N-methyl-4-(3-methyl-4-(methylthio)phenoxy)aniline] | 20 µM | 46.9 µM | – | – | – | – | –
CNCc1ccccc1Oc1ccc(SC)c(C)c1 [Compound 30, N-methyl-1-(2-(3-methyl-4-(methylthio)phenoxy)phenyl)methanamine] | 13.2 µM | 26.4 µM | 26% | – | – | – | –
CNCc1cc(Br)ccc1Oc1ccc(SC)c(C)c1 [Compound 31, (5-bromo-2-(3-methyl-4-(methylthio)phenoxy)phenyl)-N-methylmethanamine] | 7.51 µM | 13.5 µM | 18% | – | – | – | –
CNCc1ccccc1Oc1ccc(Br)cc1 [Compound 32] | 31.2 µM | > 50 µM | 30% | – | – | – | –
CNCc1ccccc1Oc1ccc(SC)cc1 [Compound 33, N-methyl(2-(4-(methylthio)phenoxy)phenyl)methanamine] | 30.2 µM | > 50 µM | 72.3% | – | – | – | –
CNCc1cc(Br)ccc1Oc1ccc(SC)cc1 [Compound 34, (5-bromo-2-(4-(methylthio)phenoxy)phenyl)-N-methylmethanamine] | 24.6 µM | 35.5 µM | 72.6% | – | – | – | –
CNCc1cc(Br)ccc1Oc1cccc(OC)c1 [Compound 37, (5-bromo-2-(3-methoxyphenoxy)phenyl)-N-methylmethanamine] | 27.7 µM | 46.9 µM | 12.4% | – | – | – | –
CNCc1ccccc1Oc1ccc(C(F)(F)F)cc1 [Compound 39, N-methyl-1-(2-(4-(trifluoromethyl)phenoxy)phenyl)methanamine] | 37.5 µM | > 50 µM | 91.7% | 50 µM | – | – | –
CSc1ccc(Oc2ccc(Br)cc2CN(C)C)cc1 [Compound 41, 1-(5-bromo-2-(4-(methylthio)phenoxy)phenyl)-N,N-dimethylmethanamine] | 25.8 µM | > 50 µM | 94.7% | 28.8 µM | – | – | –
COc1ccc(Oc2ccc(Br)cc2CN(C)C)cc1 [Compound 42, (5-bromo-2-(4-methoxyphenoxy)phenyl)-N,N-dimethylmethanamine] | 30.8 µM | > 50 µM | 51.7% | – | – | – | –
CNCc1cc(S(N)(=O)=O)ccc1Oc1ccc(SC)cc1 [Compound 43, 3-((methylamino)methyl)-4-(4-(methylthio)phenoxy)benzenesulfonamide] | 32.7 µM | > 50 µM | 73.7% | – | – | – | –
CNC(=O)c1cc(S(N)(=O)=O)ccc1Oc1ccc(SC)c(C)c1 [Compound 45, N-methyl-2-(3-methyl-4-(methylthio)phenoxy)-5-sulfamoylbenzamide] | – | – | 10.3% | – | > 50 µM | – | –
CSc1ccc(Oc2ccc(S(N)(=O)=O)cc2CN(C)C)cc1 [Compound 46, 3-((dimethylamino)methyl)-4-(4-(methylthio)phenoxy)benzenesulfonamide] | 26.3 µM | > 50 µM | 83.2% | 60.9 µM | > 50 µM | 4.58 | 83.2%
